Measured values from patent US12491170B2, “Stable treprostinil prodrugs” (United Therapeutics Corporation, priority 2020, dated 2025).
Read-outs that look alike come from different tables or passages of the source.

Key:
[1] = Stability in liver microsomes, dog
[2] = Stability in human subcutaneous skin homogenate; details: for AUC: human
[3] = Stability in cryopreserved hepatocytes, dog; details: for AUC: dog
[4] = dog
[5] = rat
[6] = Stability in cryopreserved hepatocytes, rat; details: for AUC: rat
[7] = Stability in liver microsomes, human; details: for AUC: human
[8] = Stability in liver microsomes, rat
[9] = Stability in cryopreserved hepatocytes, human; details: for AUC: human

CCCCCC(CCC1C(O)CC2Cc3c(cccc3OCC(=O)O)CC21)OC(=O)C(N)CCCCN (centres unmarked) [XXXV]
Trep Concentration 0 min [1]: 0.0159 µM
Trep Concentration 10 min [1]: 0.0246 µM
Trep Concentration 20 min [1]: 0.0405 µM
Trep Concentration 30 min [1]: 0.0449 µM
Trep Concentration 60 min [1]: 0.0788 µM
Trep Concentration 0 min [2]: 0 µM
Trep Concentration 30 min [2]: 0.857 µM
Trep Concentration 60 min [2]: 0.82 µM
Trep Concentration 120 min [2]: 0.929 µM
AUC [2]: 90.48 µmol·min/L
Trep Concentration (μM) 0 min [3]: 0 µM
Trep Concentration (μM) 15 min [3]: 0.0601 µM
Trep Concentration (μM) 30 min [3]: 0.0885 µM
Trep Concentration (μM) 60 min [3]: 0.127 µM
Trep Concentration (μM) 120 min [3]: 0.139 µM
AUC [3]: 12.78 µmol·min/L
AUC [4]: 2.81 µmol·min/L
AUC [5]: 2.92 µmol·min/L
Trep Concentration (μM) 0 min [6]: 0 µM
Trep Concentration (μM) 15 min [6]: 0.0876 µM
Trep Concentration (μM) 30 min [6]: 0.129 µM
Trep Concentration (μM) 60 min [6]: 0.169 µM
Trep Concentration (μM) 120 min [6]: 0.239 µM
AUC [6]: 18.99 µmol·min/L
Trep Concentration 0 min [7]: 0.0227 µM
Trep Concentration 10 min [7]: 0.0216 µM
Trep Concentration 20 min [7]: 0.0492 µM
Trep Concentration 30 min [7]: 0.0352 µM
Trep Concentration 60 min [7]: 0.0539 µM
AUC [7]: 2.33 µmol·min/L
Trep Concentration 0 min [8]: 0.0254 µM
Trep Concentration 10 min [8]: 0.0305 µM
Trep Concentration 20 min [8]: 0.0389 µM
Trep Concentration 30 min [8]: 0.0458 µM
Trep Concentration 60 min [8]: 0.079 µM
Trep Concentration (μM) 0 min [9]: 0 µM
Trep Concentration (μM) 15 min [9]: 0.0481 µM
Trep Concentration (μM) 30 min [9]: 0.0749 µM
Trep Concentration (μM) 60 min [9]: 0.123 µM
Trep Concentration (μM) 120 min [9]: 0.194 µM
AUC [9]: 13.76 µmol·min/L

CCCCCC(CCC1C(O)CC2Cc3c(cccc3OCC(=O)O)CC21)OC(=O)C(C)(C)C (centres unmarked) [XLIX]
Trep Concentration 0 min [1]: 0.17 µM
Trep Concentration 10 min [1]: 0.325 µM
Trep Concentration 20 min [1]: 0.433 µM
Trep Concentration 30 min [1]: 0.451 µM
Trep Concentration 60 min [1]: 0.558 µM
Trep Concentration 0 min [2]: 0 µM
Trep Concentration 30 min [2]: 0.0159 µM
Trep Concentration 60 min [2]: 0.0303 µM
Trep Concentration 120 min [2]: 0.0592 µM
AUC [2]: 3.62 µmol·min/L
Trep Concentration (μM) 0 min [3]: 0 µM
Trep Concentration (μM) 15 min [3]: 0.0727 µM
Trep Concentration (μM) 30 min [3]: 0.111 µM
Trep Concentration (μM) 60 min [3]: 0.19 µM
Trep Concentration (μM) 120 min [3]: 0.258 µM
AUC [3]: 19.88 µmol·min/L
AUC [4]: 25.82 µmol·min/L
AUC [5]: 0.41 µmol·min/L
Trep Concentration (μM) 0 min [6]: 0 µM
Trep Concentration (μM) 15 min [6]: 0.00943 µM
Trep Concentration (μM) 30 min [6]: 0.0122 µM
Trep Concentration (μM) 60 min [6]: 0.0182 µM
Trep Concentration (μM) 120 min [6]: 0.0273 µM
AUC [6]: 2.05 µmol·min/L
Trep Concentration 0 min [7]: 0.137 µM
Trep Concentration 10 min [7]: 0.171 µM
Trep Concentration 20 min [7]: 0.174 µM
Trep Concentration 30 min [7]: 0.163 µM
Trep Concentration 60 min [7]: 0.125 µM
AUC [7]: 9.27 µmol·min/L
Trep Concentration 0 min [8]: 0 µM
Trep Concentration 10 min [8]: 0.00512 µM
Trep Concentration 20 min [8]: 0.00637 µM
Trep Concentration 30 min [8]: 0.009 µM
Trep Concentration 60 min [8]: 0.0074 µM
Trep Concentration (μM) 0 min [9]: 0 µM
Trep Concentration (μM) 15 min [9]: 0.192 µM
Trep Concentration (μM) 30 min [9]: 0.179 µM
Trep Concentration (μM) 60 min [9]: 0.217 µM
Trep Concentration (μM) 120 min [9]: 0.237 µM
AUC [9]: 23.78 µmol·min/L

CCCCCC(CCC1C(O)CC2Cc3c(cccc3OCC(=O)O)CC21)OCC (centres unmarked) [XLVII]
Trep Concentration 0 min [1]: 0 µM
Trep Concentration 10 min [1]: 0.0118 µM
Trep Concentration 20 min [1]: 0.0187 µM
Trep Concentration 30 min [1]: 0.0285 µM
Trep Concentration 60 min [1]: 0.0499 µM
Trep Concentration 0 min [2]: 0 µM
Trep Concentration (μM) 0 min [3]: 0 µM
Trep Concentration (μM) 15 min [3]: 0 µM
Trep Concentration (μM) 30 min [3]: 0 µM
Trep Concentration (μM) 60 min [3]: 0.00355 µM
Trep Concentration (μM) 120 min [3]: 0.00371 µM
AUC [3]: 0.27 µmol·min/L
AUC [4]: 1.62 µmol·min/L
AUC [5]: 2.90 µmol·min/L
Trep Concentration (μM) 0 min [6]: 0 µM
Trep Concentration (μM) 15 min [6]: 0.0168 µM
Trep Concentration (μM) 30 min [6]: 0.0209 µM
Trep Concentration (μM) 60 min [6]: 0.0231 µM
Trep Concentration (μM) 120 min [6]: 0.0216 µM
AUC [6]: 2.41 µmol·min/L
Trep Concentration 0 min [7]: 0 µM
Trep Concentration 10 min [7]: 0.0448 µM
Trep Concentration 20 min [7]: 0.0686 µM
Trep Concentration 30 min [7]: 0.0816 µM
Trep Concentration 60 min [7]: 0.124 µM
AUC [7]: 4.63 µmol·min/L
Trep Concentration 0 min [8]: 0 µM
Trep Concentration 10 min [8]: 0.0292 µM
Trep Concentration 20 min [8]: 0.0421 µM
Trep Concentration 30 min [8]: 0.0553 µM
Trep Concentration 60 min [8]: 0.0719 µM
Trep Concentration (μM) 0 min [9]: 0 µM
Trep Concentration (μM) 15 min [9]: 0.0152 µM
Trep Concentration (μM) 30 min [9]: 0.0199 µM
Trep Concentration (μM) 60 min [9]: 0.0215 µM
Trep Concentration (μM) 120 min [9]: 0.0212 µM
AUC [9]: 2.28 µmol·min/L
